According to patent US20170002041A1, “NOVEL ULTRASHORT HYDROPHOBIC PEPTIDES THAT SELF-ASSEMBLE INTO NANOFIBROUS HYDROGELS AND THEIR USES” (AGENCY FOR SCIENCE, TECHNOLOGY AND RESEARCH, priority 2013, published 2017):

What was measured:
Type in all cases: physicochemical
[1] = Hydrogel formation / minimum gelation concentration
From the text: To prepare the peptide hydrogels, the lyophilized peptide powders were first dissolved in milliQ water and mixed by vortexing for 30 seconds to obtain a homogenous solution. The gelation occurred between minutes to overnight, depending on the peptide concentration. Gelation can be facilitated by sonication or heating.

[2] = Formation of aggregates and fibrous structures
[3] = Hydrogel rigidity, storage modulus (G′)

Which hydrogel formation ([1]; at 5 mg/mL) does the source give for Ac-ILVAG here?
Its hydrogel formation is “hydrogel”.

With Ac-LD6 (L) as the substance, how does the “concentration at which formation of aggregates is observed” value [2] read?
The value was 100 µg/mL.

What about the “concentration at which peptide monomers align to form fibrous structures” value [2] of the same substance?
Its value is 1000 µg/mL.

Which “minimum gelation concentration (forms hydrogels at)” value (“minimum gelation concentration” for short) ([1]; in 10 mM NaOH) does the source give for Ac-LIVAGK-NH2 here?
Its value is 10 mg/mL.

What about the minimum gelation concentration (forms hydrogels at) ([1]; in PBS) of the same substance?
The minimum gelation concentration (forms hydrogels at) was 7.5 mg/mL.

What about the “minimum gelation concentration” value ([1]; in saline) of the same substance?
Its value is 12 mg/mL.

What about the “minimum gelation concentration” value ([1]; in water) of the same substance?
The value was 20 mg/mL.

And the “storage modulus (G′)” value ([3]; 20 mg/mL hydrogel in normal saline (NaCl))?
Its value is 10 kPa.

What about the “storage modulus (G′)” value ([3]; 20 mg/mL hydrogel in phosphate buffered saline (PBS)) of the same substance?
Its value is 40 kPa.

And the “storage modulus (G′)” value ([3]; 20 mg/mL hydrogel in water)?
Its value is 1 kPa.

And the “storage modulus (G′)” value ([3]; 20 mg/mL hydrogel, addition of sodium hydroxide (NaOH))?
The value was 80 kPa.
